In ChEMBL document CHEMBL1909511, “Inhalation by design: novel tertiary amine muscarinic M₃ receptor antagonists with slow off-rate binding kinetics for inhaled once-daily treatment of chronic obstructive pulmonary disease” (J Med Chem, 2011):

Key:
Cavia porcellus = experiment: Bronchodilator activity in Dunkin-Hartley guinea pig assessed as inhibition of […] lung resistance after cumulative intratracheal administration in micelle solution at hourly intervals challenged each time 1 hr later with methacholine; format: functional, organism-based
[1] = target: Muscarinic acetylcholine receptor M3 (Cavia porcellus, UniProt Q8VH26); experiment: Antagonist activity at M3 receptor in Dunkin-Hartley guinea pig tracheal strips assessed as inhibition of electrically field-stimulated contractile response after 8 hrs; format: functional
Chain of Muscarinic acetylcholine receptor M3 (Cavia porcellus, UniProt Q8VH26) (Q8VH26 whole entry): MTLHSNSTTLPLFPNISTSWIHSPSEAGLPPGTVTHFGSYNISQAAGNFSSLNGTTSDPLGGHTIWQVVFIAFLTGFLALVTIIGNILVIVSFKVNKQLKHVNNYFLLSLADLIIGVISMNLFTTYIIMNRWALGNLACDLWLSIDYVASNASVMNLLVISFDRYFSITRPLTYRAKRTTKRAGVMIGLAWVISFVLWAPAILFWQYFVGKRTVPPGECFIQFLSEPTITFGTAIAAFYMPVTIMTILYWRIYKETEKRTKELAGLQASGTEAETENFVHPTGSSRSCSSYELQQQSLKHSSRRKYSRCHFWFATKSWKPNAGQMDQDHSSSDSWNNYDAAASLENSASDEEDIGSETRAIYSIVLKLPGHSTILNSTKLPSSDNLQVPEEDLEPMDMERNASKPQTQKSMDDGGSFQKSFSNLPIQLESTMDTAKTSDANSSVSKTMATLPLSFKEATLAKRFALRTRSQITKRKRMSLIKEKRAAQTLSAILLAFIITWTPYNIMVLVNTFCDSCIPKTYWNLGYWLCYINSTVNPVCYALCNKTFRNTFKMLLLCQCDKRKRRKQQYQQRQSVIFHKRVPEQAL

[2] = target: Muscarinic acetylcholine receptor M3 (Cavia porcellus) (UniProt Q8VH26); experiment: Antagonist activity at M3 receptor in Dunkin-Hartley guinea pig tracheal strips assessed as time taken for electrically field-stimulated contractile response to recover by 25 percent of inhibition at Emax after 2 hrs; format: functional
Chain of Muscarinic acetylcholine receptor M3 (Cavia porcellus) (Q8VH26 1-587): as the sequence (Q8VH26 whole entry) above

[3] = target: T1, Muscarinic acetylcholine receptor M3 (Homo sapiens, UniProt P20309); experiment: Displacement of [3H]-NMS from human recombinant M3 receptor expressed in CHO cells after 2 hrs by filter binding assay; format: cell-based
Target sequence in this assay (P20309 whole entry): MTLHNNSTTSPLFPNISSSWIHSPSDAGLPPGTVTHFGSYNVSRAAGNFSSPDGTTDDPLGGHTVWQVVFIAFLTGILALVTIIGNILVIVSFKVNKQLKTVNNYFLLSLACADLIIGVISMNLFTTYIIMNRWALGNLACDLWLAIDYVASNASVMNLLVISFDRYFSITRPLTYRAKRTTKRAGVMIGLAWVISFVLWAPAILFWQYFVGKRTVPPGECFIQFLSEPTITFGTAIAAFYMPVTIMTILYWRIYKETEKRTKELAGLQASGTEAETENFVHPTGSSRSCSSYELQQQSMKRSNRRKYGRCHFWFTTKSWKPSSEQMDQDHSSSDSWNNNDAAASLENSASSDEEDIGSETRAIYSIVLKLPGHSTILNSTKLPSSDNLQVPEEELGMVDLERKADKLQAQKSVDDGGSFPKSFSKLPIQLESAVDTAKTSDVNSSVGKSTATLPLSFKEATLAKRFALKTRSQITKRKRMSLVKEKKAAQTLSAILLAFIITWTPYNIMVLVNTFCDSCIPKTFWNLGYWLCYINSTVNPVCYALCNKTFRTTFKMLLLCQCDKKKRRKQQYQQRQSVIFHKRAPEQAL

[4] = target: T2, Muscarinic acetylcholine receptor M2 (Homo sapiens, UniProt P08172); experiment: Displacement of [3H]-NMS from human recombinant M2 receptor expressed in CHO cells after 2 hrs by filter binding assay; format: cell-based
T2 sequence (P08172 whole entry): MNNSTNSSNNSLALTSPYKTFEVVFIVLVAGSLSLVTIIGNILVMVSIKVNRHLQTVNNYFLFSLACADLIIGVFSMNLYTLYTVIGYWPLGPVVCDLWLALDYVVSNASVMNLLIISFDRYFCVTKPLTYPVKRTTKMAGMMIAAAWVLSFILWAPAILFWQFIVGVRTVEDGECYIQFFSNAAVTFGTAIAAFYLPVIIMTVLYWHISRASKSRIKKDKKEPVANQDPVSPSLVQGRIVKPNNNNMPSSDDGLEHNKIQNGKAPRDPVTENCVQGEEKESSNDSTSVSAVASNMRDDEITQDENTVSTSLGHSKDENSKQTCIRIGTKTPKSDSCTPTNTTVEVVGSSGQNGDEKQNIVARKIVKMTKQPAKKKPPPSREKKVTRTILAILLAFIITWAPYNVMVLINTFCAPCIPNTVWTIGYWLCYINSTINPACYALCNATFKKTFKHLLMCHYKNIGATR

[5] = target: T1, Muscarinic acetylcholine receptor M3; settings: CHO
Target sequence in this assay (P20309 whole entry, looked up): as the sequence (P20309 whole entry) above

[6] = target: T1, Muscarinic acetylcholine receptor M3; experiment: Antagonist activity at human recombinant M3 receptor expressed in CHO-K1 cells assessed as inhibition of carbamoyl choline-induced calcium currents after 4 hrs by fluorimetry; format: functional, cell-based
Target sequence in this assay (P20309 whole entry): as the sequence (P20309 whole entry) above

[7] = Intrinsic clearance in human hepatocytes assessed per million cells
[8] = Intrinsic clearance in human liver microsomes assessed per mg of protein in presence of NADPH
[9] = Intrinsic clearance in human liver microsomes assessed per mg of protein by glucuronidation assay in presence of Brijj-58 and UDPGA
[10] = target: T1, Muscarinic acetylcholine receptor M3
Target sequence in this assay (P20309 whole entry, looked up): as the sequence (P20309 whole entry) above

[11] = target: T3, Muscarinic acetylcholine receptor M4 (Homo sapiens, UniProt P08173); experiment: Displacement of [3H]-NMS from human recombinant M4 receptor expressed in CHO cells after 24 hrs by filter binding assay; format: cell-based
T3 sequence (P08173 whole entry): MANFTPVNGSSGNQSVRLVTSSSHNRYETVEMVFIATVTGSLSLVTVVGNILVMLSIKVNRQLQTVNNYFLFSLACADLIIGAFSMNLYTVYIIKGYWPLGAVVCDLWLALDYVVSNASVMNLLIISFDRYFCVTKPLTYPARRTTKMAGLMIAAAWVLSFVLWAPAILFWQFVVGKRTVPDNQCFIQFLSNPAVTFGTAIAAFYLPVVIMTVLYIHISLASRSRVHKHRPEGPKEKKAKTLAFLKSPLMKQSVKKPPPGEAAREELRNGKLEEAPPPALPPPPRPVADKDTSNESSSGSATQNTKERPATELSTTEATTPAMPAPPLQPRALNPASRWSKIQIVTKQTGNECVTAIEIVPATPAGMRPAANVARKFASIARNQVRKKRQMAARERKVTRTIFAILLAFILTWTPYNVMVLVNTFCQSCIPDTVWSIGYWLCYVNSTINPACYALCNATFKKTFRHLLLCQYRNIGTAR

[12] = target: T4, Muscarinic acetylcholine receptor M1 (Homo sapiens) (UniProt P11229); experiment: Displacement of [3H]-NMS from human recombinant M1 receptor expressed in CHO cells assessed as dissociation half life at 100 fold human M1 receptor binding Ki concentration after 24 hrs by dilution-offset filter binding assay; format: cell-based
T4 sequence (whole entry): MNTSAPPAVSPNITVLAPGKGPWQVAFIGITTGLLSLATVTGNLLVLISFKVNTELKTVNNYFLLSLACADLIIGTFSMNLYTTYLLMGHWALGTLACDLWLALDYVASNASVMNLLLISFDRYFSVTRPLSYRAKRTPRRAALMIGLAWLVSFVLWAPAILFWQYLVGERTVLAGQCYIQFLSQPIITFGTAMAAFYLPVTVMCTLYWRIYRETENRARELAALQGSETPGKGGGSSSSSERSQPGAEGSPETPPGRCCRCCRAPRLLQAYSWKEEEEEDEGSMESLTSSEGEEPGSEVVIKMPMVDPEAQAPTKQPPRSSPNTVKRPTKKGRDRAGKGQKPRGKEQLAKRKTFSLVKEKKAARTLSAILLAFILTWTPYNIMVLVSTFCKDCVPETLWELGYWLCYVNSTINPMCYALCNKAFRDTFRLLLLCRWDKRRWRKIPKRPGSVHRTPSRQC

[13] = target: T1, Muscarinic acetylcholine receptor M3; remark: listed apart in the source
Target sequence in this assay (P20309 whole entry, looked up): as the sequence (P20309 whole entry) above
Description: Displacement of radioligand from M3 receptor assessed as dissociation half life

[14] = target: T1, Muscarinic acetylcholine receptor M3; settings: CHO; remark: listed apart in the source
Target sequence in this assay (P20309 whole entry, looked up): as the sequence (P20309 whole entry) above

Canis familiaris [15] = experiment: Bronchodilator activity in Beagle dog assessed as inhibition of methacholine-induced lung resistance after cumulative intratracheal administration in micelle solution at hourly intervals challenged each time 1 hr later with methacholine; format: functional, Canis lupus familiaris
Canis familiaris [16] = experiment: Bronchodilator activity in methacholine challenged Beagle dog assessed as intrinsic duration of action at 10 ug intratracheally administered as single dose in micelle solution; format: functional, Canis lupus familiaris
[17] = target: T5, Muscarinic acetylcholine receptor M4 (Homo sapiens) (UniProt P08173); experiment: Displacement of [3H]-NMS from human recombinant M4 receptor expressed in CHO cells assessed as dissociation half life at 100 fold human M4 receptor binding Ki concentration after 24 hrs by dilution-offset filter binding assay; format: cell-based
T5 sequence (whole entry): T3 sequence (P08173 whole entry)

[18] = target: T6, Muscarinic acetylcholine receptor M5 (Homo sapiens, UniProt P08912); experiment: Displacement of [3H]-NMS from human recombinant M5 receptor expressed in CHO cells after 24 hrs by filter binding assay; format: cell-based
T6 sequence (P08912 whole entry): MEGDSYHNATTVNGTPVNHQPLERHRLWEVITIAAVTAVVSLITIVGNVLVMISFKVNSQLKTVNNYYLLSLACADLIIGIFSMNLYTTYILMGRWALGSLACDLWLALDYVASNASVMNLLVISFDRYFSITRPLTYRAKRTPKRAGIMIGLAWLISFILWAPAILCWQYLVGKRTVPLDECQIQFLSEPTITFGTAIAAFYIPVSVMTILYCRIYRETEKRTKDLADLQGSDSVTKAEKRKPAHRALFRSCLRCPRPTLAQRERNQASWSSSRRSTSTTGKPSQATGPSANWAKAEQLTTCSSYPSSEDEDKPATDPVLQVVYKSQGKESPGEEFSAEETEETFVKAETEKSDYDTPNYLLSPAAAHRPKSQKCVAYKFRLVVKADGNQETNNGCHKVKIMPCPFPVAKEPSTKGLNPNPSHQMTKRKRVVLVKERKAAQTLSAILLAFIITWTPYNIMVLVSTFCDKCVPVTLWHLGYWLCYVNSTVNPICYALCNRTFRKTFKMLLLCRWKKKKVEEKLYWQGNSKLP

[19] = target: T7, Muscarinic acetylcholine receptor M2 (Homo sapiens) (UniProt P08172); experiment: Displacement of [3H]-NMS from human recombinant M2 receptor expressed in CHO cells assessed as dissociation half life at 100 fold human M2 receptor binding Ki concentration after 24 hrs by dilution-offset filter binding assay; format: cell-based
T7 sequence (whole entry): T2 sequence (P08172 whole entry)

[20] = target: T8, Muscarinic acetylcholine receptor M5 (Homo sapiens) (UniProt P08912); experiment: Displacement of [3H]-NMS from human recombinant M5 receptor expressed in CHO cells assessed as dissociation half life at 100 fold human M5 receptor binding Ki concentration after 24 hrs by dilution-offset filter binding assay; format: cell-based
T8 sequence (whole entry): T6 sequence (P08912 whole entry)

[21] = Apparent permeability across basolateral to apical side in human Caco2 cells; format: ADME, cell-based; settings: Caco-2
[22] = Apparent permeability across apical to basolateral side in human Caco2 cells; format: ADME, cell-based; settings: Caco-2

SMILES: CC(C)(CCC(C(N)=O)(c1ccccc1)c1ccccc1)N1CC[C@H](Oc2cccc(O)c2)C1
- ED50 (Cavia porcellus): 10 µg
- IC50 [1]: 4.3 nM
- TIME [2]: > 16 h

SMILES: CC(C)(CCC(C(N)=O)(c1ccccc1)c1ccccc1)N1CCC(Oc2ccccc2)CC1
- Ki [3]: 3.9 nM
- Ki [4]: 2.6 nM
- T1/2 [5]: 17.5 h

SMILES: CC(C)(CCC(C(N)=O)(c1ccccc1)c1ccccc1)N1CC[C@@H](Oc2cccc(O)c2)C1
- ED50 (Cavia porcellus): 20 µg
- IC50 [1]: 3.87 nM
- TIME [2]: > 16 h

SMILES: CC(C)(CCC(C(N)=O)(c1ccccc1)c1ccccc1)N1CC[C@@H](Oc2cc(O)cc(F)c2)C1
- Ki [6]: 0.56 nM
- T1/2 [5]: > 24 h
- hepatocyte CLint [7]: 114 µL/min/1e6 cells
- microsomal CLint [8]: > 440 µL/min/mg

SMILES: NC(=O)C(CCCN1CC[C@H](Oc2ccccc2)C1)(c1ccccc1)c1ccccc1
- Ki [6]: 2.4 nM
- Ki [3]: 1.9 nM
- Ki [4]: 15 nM
- T1/2 [5]: 0.633 h

SMILES: CC(C)(CCC(C(N)=O)(c1ccccc1)c1ccccc1)N1CC(Oc2cc(O)cc(F)c2)C1
- microsomal CLint [9]: 403 µL/min/mg
- microsomal CLint [8]: 176 µL/min/mg

SMILES: CC(C)(CCC(C(N)=O)(c1ccccc1)c1ccccc1)N1CC[C@@H](Oc2ccccc2)C1
- Ki [6]: 1.6 nM
- Ki [3]: 6.4 nM
- Ki [4]: 12 nM
- T1/2 [5]: > 24 h

SMILES: CC(C)(CCC(C(N)=O)(c1ccccc1)c1ccccc1)N1CC[C@H](Oc2ccc(Cl)c(O)c2)C1
- Ki [6]: 2 nM
- T1/2 [5]: 13.4 h

SMILES: CC(C)(CCC(C(N)=O)(c1ccccc1)c1ccccc1)N1CC(Oc2ccc(Cl)c(O)c2)C1
- Ki [6]: 1.9 nM
- T1/2 [5]: 23.5 h
- hepatocyte CLint [7]: 159 µL/min/1e6 cells
- microsomal CLint [9]: 430 µL/min/mg
- microsomal CLint [8]: 116 µL/min/mg

SMILES: C[N+]1(C)[C@@H]2C[C@@H](OC(=O)C(O)(c3cccs3)c3cccs3)C[C@H]1[C@@H]1O[C@@H]12.O.[Br-] [TIOTROPIUM BROMIDE]
- pKb [10]: 10.2
- Ki [11]: 0.0078 nM
- T1/2 [12]: > 23.8 h
- T1/2 [13]: 9.45 h
- T1/2 [14]: > 22.8 h
- ID50 (Canis familiaris [15]): 3 µg
- Time (Canis familiaris [16]): 32 h
- T1/2 [17]: > 24 h
- Ki [18]: 0.0266 nM
- T1/2 [5]: > 24 h
- T1/2 [19]: > 13 h
- TIME [2]: > 12.9 h
- T1/2 [20]: > 24 h

SMILES: CC(C)(CCC(C(N)=O)(c1ccccc1)c1ccccc1)N1CC(Oc2cc(O)cc(Cl)c2)C1
- Ki [6]: 0.22 nM
- hepatocyte CLint [7]: 116 µL/min/1e6 cells
- microsomal CLint [9]: 223 µL/min/mg
- microsomal CLint [8]: 361 µL/min/mg

SMILES: CC(C)[N+]1(C)C2CCC1CC(OC(=O)C(CO)c1ccccc1)C2.O.[Br-] (stereo not given)
- ID50 (Canis familiaris [15]): 10 µg
- TIME [2]: 1.47 h

SMILES: CC(C)(CCC(C(N)=O)(c1ccccc1)c1ccccc1)N1CC[C@H](Oc2ccccc2)C1
- Ki [6]: 0.25 nM
- Ki [3]: 1.8 nM
- Papp B→A [21]: 13 ×10⁻⁶ cm/s
- Ki [4]: 1.6 nM
- T1/2 [5]: > 24 h
- Papp A→B [22]: 16 ×10⁻⁶ cm/s

SMILES: CC(C)(CCC(C(N)=O)(c1ccccc1)c1ccccc1)N1CC(Oc2cccc(O)c2F)C1
- ED50 (Cavia porcellus): 4 µg
- IC50 [1]: 3.48 nM
- TIME [2]: > 16 h

SMILES: CC(C)(CCC(C(N)=O)(c1ccccc1)c1ccccc1)N1CC[C@H](Oc2ccc(O)cc2)C1
- Ki [6]: 0.76 nM
- T1/2 [5]: 3.82 h

SMILES: CC(C)(CCC(C(N)=O)(c1ccccc1)c1ccccc1)N1CC(OCc2cccc(O)c2)C1
- Ki [6]: 0.18 nM
- T1/2 [5]: 20.7 h
- hepatocyte CLint [7]: 34 µL/min/1e6 cells
- microsomal CLint [9]: 13 µL/min/mg
- microsomal CLint [8]: 364 µL/min/mg

SMILES: CC(C)(CCC(C(N)=O)(c1ccccc1)c1ccccc1)N1CC(Oc2ccccc2O)C1
- Ki [6]: 11 nM

SMILES: CC(C)(CCC(C(N)=O)(c1ccccc1)c1ccccc1)N1CC(Oc2ccccc2)C1
- Ki [3]: 0.11 nM
- Ki [4]: 0.056 nM
- T1/2 [5]: 8.02 h
- microsomal CLint [8]: > 440 µL/min/mg
